Reference: US10479795B2 (Incyte Corporation, priority 2016, dated 2019)
Structures can show the parent of a compound that is named as a salt. Where two headings read alike, the source gives them in different places.

Legend:
[1] = biological target: PI3Kγ (p110γ) Recombinant Human Protein (Homo sapiens (Human), UniProt P48736); assay: PI3K-γ Scintillation Proximity Assay; format: biochemical; conditions: read-out: PI3Kγ IC50
Summary of the method: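 Recombinant human p110γ assayed at room temperature in 20 mM MOPS pH 6.7, 10 mM MgCl2, 5 mM DTT, 0.03% CHAPS, 2% DMSO, with 20 μM PIP2 and 2 μM ATP plus [γ-33P]ATP. Product captured on WGA SPA beads overnight and counted; IC50 fitted from % of solvent-control activity versus log inhibitor concentration.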

[2] = system: Phosphorylated Ribosomal Protein S6 (RPS6); assay: THP-1 RPS6 ELISA Assay; format: cell-based, Human; conditions: THP-1 cells, read-out: PI3Kγ_THP1_RPS6_ELISA IC50
Summary of the method: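 Serum-starved THP-1 cells were preincubated with a concentration range of compound for 2 h at 37 °C, then stimulated with 10 nM MCP-1 for 15 min. Phospho-RPS6 in lysates was quantified by ELISA at 450 nm. IC50 came from percent inhibition versus log inhibitor concentration.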

[3] = biological target: PI3Kδ (p110δ/p85α) Recombinant Human Protein (Homo sapiens (Human), UniProt O00329); assay: PI3Kδ Scintillation Proximity Assay; format: biochemical
Summary of the method: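 Recombinant human p110δ/p85α (3.4 nM) phosphorylates 20 μM di-octanoyl PIP2 using 2 μM ATP spiked with [γ-33P]ATP, 120 min, room temperature, pH 6.7, 2% DMSO. Product measured by scintillation proximity; IC50 from dose-response fit.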

Sequence of PI3Kγ (p110γ) Recombinant Human Protein (P48736 whole entry): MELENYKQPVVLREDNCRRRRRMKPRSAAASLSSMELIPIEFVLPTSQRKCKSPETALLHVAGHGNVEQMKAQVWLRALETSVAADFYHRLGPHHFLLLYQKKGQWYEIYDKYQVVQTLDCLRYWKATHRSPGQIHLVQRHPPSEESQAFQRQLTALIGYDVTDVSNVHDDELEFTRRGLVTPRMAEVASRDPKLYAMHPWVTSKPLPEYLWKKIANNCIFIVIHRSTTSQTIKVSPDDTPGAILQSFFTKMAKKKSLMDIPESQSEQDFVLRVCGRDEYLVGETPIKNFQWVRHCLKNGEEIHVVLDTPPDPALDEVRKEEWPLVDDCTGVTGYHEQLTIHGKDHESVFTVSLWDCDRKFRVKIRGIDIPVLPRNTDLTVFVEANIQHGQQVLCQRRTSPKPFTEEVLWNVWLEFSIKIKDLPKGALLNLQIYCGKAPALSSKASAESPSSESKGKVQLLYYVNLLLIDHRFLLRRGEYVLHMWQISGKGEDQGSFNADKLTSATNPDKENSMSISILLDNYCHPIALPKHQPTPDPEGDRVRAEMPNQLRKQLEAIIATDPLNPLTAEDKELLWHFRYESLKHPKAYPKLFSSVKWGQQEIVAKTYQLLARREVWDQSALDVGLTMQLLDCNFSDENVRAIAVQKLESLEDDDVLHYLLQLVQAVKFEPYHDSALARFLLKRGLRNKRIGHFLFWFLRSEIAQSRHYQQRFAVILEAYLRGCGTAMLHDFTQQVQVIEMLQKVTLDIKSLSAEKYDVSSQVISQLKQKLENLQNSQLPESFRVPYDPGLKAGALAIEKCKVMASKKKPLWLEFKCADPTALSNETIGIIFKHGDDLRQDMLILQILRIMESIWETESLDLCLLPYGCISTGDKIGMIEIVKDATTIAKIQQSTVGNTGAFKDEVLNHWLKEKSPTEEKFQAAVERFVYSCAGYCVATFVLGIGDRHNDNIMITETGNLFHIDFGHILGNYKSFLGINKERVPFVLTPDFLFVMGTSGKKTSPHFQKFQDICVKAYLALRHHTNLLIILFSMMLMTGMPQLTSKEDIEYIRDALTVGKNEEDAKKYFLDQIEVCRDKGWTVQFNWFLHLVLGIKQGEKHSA
Sequence of PI3Kδ (p110δ/p85α) Recombinant Human Protein (O00329 whole entry): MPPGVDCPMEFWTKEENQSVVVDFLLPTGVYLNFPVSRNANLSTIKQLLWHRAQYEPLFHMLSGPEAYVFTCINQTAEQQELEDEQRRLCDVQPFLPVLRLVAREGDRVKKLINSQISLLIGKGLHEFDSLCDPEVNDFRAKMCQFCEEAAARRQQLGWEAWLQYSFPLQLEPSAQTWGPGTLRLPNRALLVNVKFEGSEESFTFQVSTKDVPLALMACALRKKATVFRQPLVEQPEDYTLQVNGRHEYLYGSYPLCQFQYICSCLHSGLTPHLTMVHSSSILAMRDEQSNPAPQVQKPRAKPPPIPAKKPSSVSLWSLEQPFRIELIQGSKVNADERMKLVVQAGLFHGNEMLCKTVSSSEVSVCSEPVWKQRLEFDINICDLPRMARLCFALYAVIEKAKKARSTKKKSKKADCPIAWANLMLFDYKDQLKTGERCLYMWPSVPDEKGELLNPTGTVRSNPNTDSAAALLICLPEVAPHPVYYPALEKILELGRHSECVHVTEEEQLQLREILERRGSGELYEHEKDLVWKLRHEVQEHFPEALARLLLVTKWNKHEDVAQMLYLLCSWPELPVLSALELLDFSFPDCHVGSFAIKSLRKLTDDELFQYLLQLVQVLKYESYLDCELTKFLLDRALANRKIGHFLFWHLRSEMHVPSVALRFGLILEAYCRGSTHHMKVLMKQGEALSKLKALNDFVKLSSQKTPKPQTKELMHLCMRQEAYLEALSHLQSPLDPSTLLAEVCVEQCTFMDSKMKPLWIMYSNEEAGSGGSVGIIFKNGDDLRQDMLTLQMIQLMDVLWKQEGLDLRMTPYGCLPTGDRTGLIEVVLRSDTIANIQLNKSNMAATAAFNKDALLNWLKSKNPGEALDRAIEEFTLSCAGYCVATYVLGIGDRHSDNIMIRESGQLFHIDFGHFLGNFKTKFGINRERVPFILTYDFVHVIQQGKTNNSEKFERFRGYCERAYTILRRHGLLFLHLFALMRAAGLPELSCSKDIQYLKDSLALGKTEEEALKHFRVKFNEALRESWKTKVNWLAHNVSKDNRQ
Sequence of PI3Kδ (p110δ/p85α) Recombinant Human Protein (P27986 whole entry partner): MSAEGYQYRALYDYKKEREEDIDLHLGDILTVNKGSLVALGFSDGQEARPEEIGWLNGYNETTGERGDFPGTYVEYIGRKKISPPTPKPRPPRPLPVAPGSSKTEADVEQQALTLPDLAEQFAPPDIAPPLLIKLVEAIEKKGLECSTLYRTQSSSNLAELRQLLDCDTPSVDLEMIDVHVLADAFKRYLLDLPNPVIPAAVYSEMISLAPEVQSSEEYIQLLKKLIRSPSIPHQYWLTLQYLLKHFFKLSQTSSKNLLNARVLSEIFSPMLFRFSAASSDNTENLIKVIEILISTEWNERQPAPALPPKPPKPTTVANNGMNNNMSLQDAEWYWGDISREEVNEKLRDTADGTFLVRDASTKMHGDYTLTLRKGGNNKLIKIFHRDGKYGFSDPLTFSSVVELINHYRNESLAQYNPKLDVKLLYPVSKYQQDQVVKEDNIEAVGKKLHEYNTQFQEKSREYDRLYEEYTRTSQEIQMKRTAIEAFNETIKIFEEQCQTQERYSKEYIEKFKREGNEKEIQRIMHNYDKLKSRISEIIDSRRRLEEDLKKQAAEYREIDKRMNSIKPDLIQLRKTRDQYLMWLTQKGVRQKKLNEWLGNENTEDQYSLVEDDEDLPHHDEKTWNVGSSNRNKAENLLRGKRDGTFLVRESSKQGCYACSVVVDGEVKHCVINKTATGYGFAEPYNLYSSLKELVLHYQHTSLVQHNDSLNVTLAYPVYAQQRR

Row | SMILES | IC50 [1] | IC50 ([2]; Homo sapiens) | IC50 [3] | IC50 [2]
1 | Cc1ccc(NS(=O)(=O)C2CCOCC2)cc1-c1cnc2c(N)nccn12 [Example 471, N-(3-(8-Aminoimidazo[1,2-a]pyrazin-3-yl)-4-methylphenyl)tetrahydro-2H-pyran-4-sulfonamide] | 100 to 500 nM | > 1000 nM | 500 to 2000 nM | –
2 | Cc1ccc(S(=O)(=O)N2CCCC(CO)C2)cc1-c1cnc2c(N)nc(C(F)(F)F)cn12 (stereo not drawn) [Example 472, (1-((3-(8-Amino-6-(trifluoromethyl)imidazo[1,2-a]pyrazin-3-yl)-4-methylphenyl)sulfonyl)piperidin-3-yl)methanol] | < 100 nM | 100 to 500 nM | 100 to 500 nM | –
3 | Cc1ccc(S(C)(=O)=O)cc1-c1cnc2c(N)nc(-c3cccc(CC#N)c3)cn12 [Example 474, 2-(3-(8-Amino-3-(2-methyl-5-(methylsulfonyl)phenyl)imidazo[1,2-a]pyrazin-6-yl)phenyl)acetonitrile trifluoroacetate] | < 100 nM | 100 to 500 nM | 100 to 500 nM | –
4 | Cc1ccc(S(C)(=O)=O)cc1-c1cnc2c(N)nc(-c3ccc(C(F)F)cc3)cn12 [Example 475, 6-(4-(Difluoromethyl)phenyl)-3-(2-methyl-5-(methylsulfonyl)phenyl)imidazo[1,2-a]pyrazin-8-amine trifluoroacetate] | < 100 nM | 500 to 1000 nM | 100 to 500 nM | –
5 | Cc1ccc(S(C)(=O)=O)cc1-c1cnc2c(N)nc(-c3ccncc3F)cn12 [Example 476, 6-(3-Fluoropyridin-4-yl)-3-(2-methyl-5-(methylsulfonyl)phenyl)imidazo[1,2-a]pyrazin-8-amine trifluoroacetate] | < 100 nM | 100 to 500 nM | 100 to 500 nM | –
6 | COc1ncccc1-c1cn2c(-c3cc(S(C)(=O)=O)ccc3C)cnc2c(N)n1 [Example 477, 6-(2-Methoxypyridin-3-yl)-3-(2-methyl-5-(methylsulfonyl)phenyl)imidazo[1,2-a]pyrazin-8-amine trifluoroacetate] | < 100 nM | – | 100 to 500 nM | 100 to 500 nM
7 | Cc1ccc(S(C)(=O)=O)cc1-c1cnc2c(N)nc(-c3cccc(CO)c3F)cn12 [Example 481, (3-(8-Amino-3-(2-methyl-5-(methylsulfonyl)phenyl)imidazo[1,2-a]pyrazin-6-yl)-2-fluorophenyl)methanol] | < 100 nM | 100 to 500 nM | 100 to 500 nM | –
8 | Cc1ccc(S(C)(=O)=O)cc1-c1cnc2c(N)nc(-c3ccc(N)nc3)cn12 [Example 482, 6-(6-Aminopyridin-3-yl)-3-(2-methyl-5-(methylsulfonyl)phenyl)imidazo[1,2-a]pyrazin-8-amine trifluoroacetate] | < 100 nM | > 1000 nM | 500 to 2000 nM | –
9 | COc1nccc(-c2cn3c(-c4cc(S(C)(=O)=O)ccc4C)cnc3c(N)n2)c1F [Example 483, 6-(3-Fluoro-2-methoxypyridin-4-yl)-3-(2-methyl-5-(methylsulfonyl)phenyl)imidazo[1,2-a]pyrazin-8-amine trifluoroacetate] | < 100 nM | > 1000 nM | < 100 nM | –
10 | Cc1ccc(S(C)(=O)=O)cc1-c1cnc2c(N)nc(-c3ccncc3Cl)cn12 [Example 484, 6-(3-Chloropyridin-4-yl)-3-(2-methyl-5-(methylsulfonyl)phenyl)imidazo[1,2-a]pyrazin-8-amine trifluoroacetate] | < 100 nM | 100 to 500 nM | 100 to 500 nM | –
11 | COc1cnccc1-c1cn2c(-c3cc(S(C)(=O)=O)ccc3C)cnc2c(N)n1 [Example 485, 6-(3-Methoxypyridin-4-yl)-3-(2-methyl-5-(methylsulfonyl)phenyl)imidazo[1,2-a]pyrazin-8-amine trifluoroacetate] | < 100 nM | 100 to 500 nM | 100 to 500 nM | –
12 | Cc1ccc(S(C)(=O)=O)cc1-c1cnc2c(N)nc(-c3cccc(OCC#N)c3)cn12 [Example 486, 2-(3-(8-Amino-3-(2-methyl-5-(methylsulfonyl)phenyl)imidazo[1,2-a]pyrazin-6-yl)phenoxy)acetonitrile trifluoroacetate] | < 100 nM | 100 to 500 nM | 100 to 500 nM | –
13 | Cc1ccc(S(C)(=O)=O)cc1-c1cnc2c(N)nc(-c3ccc(C(C)O)cc3F)cn12 (stereo not drawn) [Example 488, 1-(4-(8-Amino-3-(2-methyl-5-(methylsulfonyl)phenyl)imidazo[1,2-a]pyrazin-6-yl)-3-fluorophenyl)ethan-1-ol] | < 100 nM | 100 to 500 nM | 100 to 500 nM | –
14 | Cc1cc(-c2cn3c(-c4cc(S(C)(=O)=O)ccc4C)cnc3c(N)n2)c(F)cn1 [Example 489, 6-(5-Fluoro-2-methylpyridin-4-yl)-3-(2-methyl-5-(methylsulfonyl)phenyl)imidazo[1,2-a]pyrazin-8-amine trifluoroacetate] | < 100 nM | 100 to 500 nM | 100 to 500 nM | –
15 | COc1nc(CO)ccc1-c1cn2c(-c3cc(S(C)(=O)=O)ccc3C)cnc2c(N)n1 [Example 490, (5-(8-Amino-3-(2-methyl-5-(methylsulfonyl)phenyl)imidazo[1,2-a]pyrazin-6-yl)-6-methoxypyridin-2-yl)methanol trifluoroacetate] | < 100 nM | < 100 nM | 100 to 500 nM | –
16 | COc1cn[nH]c1-c1cn2c(-c3cc(S(C)(=O)=O)ccc3C)cnc2c(N)n1 [Example 491, 6-(4-Methoxy-1H-pyrazol-5-yl)-3-(2-methyl-5-(methylsulfonyl)phenyl)imidazo[1,2-a]pyrazin-8-amine trifluoroacetate] | < 100 nM | 100 to 500 nM | 100 to 500 nM | –
17 | Cc1ccc(S(=O)(=O)CC2CCOCC2)cc1-c1cnc2c(N)ncnn12 [Example 492, 7-(2-Methyl-5-(((tetrahydro-2H-pyran-4-yl)methyl)sulfonyl)phenyl)imidazo[2,1-f][1,2,4]triazin-4-amine trifluoroacetate] | < 100 nM | 500 to 1000 nM | 500 to 2000 nM | –
18 | Cc1ccc(S(=O)(=O)CCC(F)(F)F)cc1-c1cnc2c(N)ncnn12 [Example 493, 7-(2-Methyl-5-((3,3,3-trifluoropropyl)sulfonyl)phenyl)imidazo[2,1-f][1,2,4]triazin-4-amine trifluoroacetate] | 100 to 500 nM | > 1000 nM | > 2000 nM | –
19 | Cc1ccc(S(=O)(=O)CCC(C)O)cc1-c1cnc2c(N)nc(C(F)(F)F)cn12 (stereo not drawn) [Example 494, 4-((3-(8-Amino-6-(trifluoromethyl)imidazo[1,2-a]pyrazin-3-yl)-4-methylphenyl)sulfonyl)butan-2-ol] | < 100 nM | > 1000 nM | 500 to 2000 nM | –
20 | Cc1ccc(S(=O)(=O)CCC(C)(C)O)cc1-c1cnc2c(N)nc(C(F)(F)F)cn12 [Example 495, 4-((3-(8-Amino-6-(trifluoromethyl)imidazo[1,2-a]pyrazin-3-yl)-4-methylphenyl)sulfonyl)-2-methylbutan-2-ol] | < 100 nM | – | 500 to 2000 nM | > 1000 nM
21 | Cc1ccc(S(=O)(=O)CC(C)O)cc1-c1cnc2c(N)nc(C(F)(F)F)cn12 (stereo not drawn) [Example 496, 1-((3-(8-Amino-6-(trifluoromethyl)imidazo[1,2-a]pyrazin-3-yl)-4-methylphenyl)sulfonyl)propan-2-ol trifluoroacetate] | < 100 nM | 500 to 1000 nM | 500 to 2000 nM | –
22 | Cc1ccc(S(=O)(=O)CC2CC(F)(F)C2)cc1-c1cnc2c(N)ncnn12 [Example 500, 7-(5-(((3,3-Difluorocyclobutyl)methyl)sulfonyl)-2-methylphenyl)imidazo[2,1-f][1,2,4]triazin-4-amine] | < 100 nM | 100 to 500 nM | 500 to 2000 nM | –
23 | COc1ncccc1-c1cn2c(-c3cc(S(=O)(=O)C(C)(C)C(C)O)ccc3C)cnc2c(N)n1 (stereo not drawn) [Example 502, 3-((3-(8-Amino-6-(2-methoxypyridin-3-yl)imidazo[1,2-a]pyrazin-3-yl)-4-methylphenyl)sulfonyl)-3-methylbutan-2-ol trifluoroacetate] | < 100 nM | 100 to 500 nM | < 100 nM | –
24 | Cc1ccc(S(=O)(=O)CC2(O)CCC2)cc1-c1cnc2c(N)nc(-c3ccncc3F)cn12 [Example 503, 1-(((3-(8-Amino-6-(3-fluoropyridin-4-yl)imidazo[1,2-a]pyrazin-3-yl)-4-methylphenyl)sulfonyl)methyl)cyclobutan-1-ol] | < 100 nM | 100 to 500 nM | < 100 nM | –
25 | Cc1ccc(S(=O)(=O)N[C@H]2CC[C@H](O)CC2)cc1-c1cnc2c(N)nc(C(C)C)cn12 [Example 504, 3-(8-Amino-6-isopropylimidazo[1,2-a]pyrazin-3-yl)-N-(trans-4-hydroxycyclohexyl)-4-methylbenzenesulfonamide] | < 100 nM | < 100 nM | < 100 nM | –
26 | Cc1cn2c(-c3cc(S(=O)(=O)N[C@H]4CC[C@](C)(O)CC4)ccc3C)cnc2c(N)n1 [Example 505, 3-(8-Amino-6-methylimidazo[1,2-a]pyrazin-3-yl)-N-((1r,4r)-4-hydroxy-4-methylcyclohexyl)-4-methylbenzenesulfonamide] | < 100 nM | 100 to 500 nM | < 100 nM | –
